The values that follow come from article PMC11938273 (Journal of Chemical Information and Modeling, 2025).

The conditions of the first data set: mouse, in vivo.
For the compound `COC(=O)[C@H]1[C@@H](c2ccc(I)cc2)C[C@@H]2CC[C@H]1N2C/C=C/I` [Me@IPICIT, Methyl (1R,2S,3S,5S)-3-(4-iodophenyl)-8-[(2E)-3-iodo-2-propen-1-yl]-8-azabicyclo [3.2.1]octane-2-carboxylate], the CNS status entry is “Positive”.

The conditions of the next data set: in vivo; cited from earlier work.
Consider `COc1cccc2c1C(=O)c1c(O)c3c(c(O)c1C2=O)C[C@@](O)(C(=O)CO)C[C@@H]3O[C@H]1C[C@H](N)[C@@H](O)[C@H](C)O1` [Epirubicin, (1S,3S)-3-Glycoloyl-3,5,12-trihydroxy-10-methoxy-6,11-dioxo-1,2,3,4,6,11-hexahydro-1-tetracenyl 3-amino-2,3,6-trideoxy-α-L-arabino-hexopyranoside], for which the CNS status entry is recorded as “Efflux transporter substrate”. Regarding `CNC(C)C(O)c1cccc(O)c1` (centres unmarked) [mHED, 3-[1-Hydroxy-2-(methylamino)propyl]phenol], the CNS status entry is reported as “Negative”.

Take `CCOc1nc2cccc(C(=O)O)c2n1Cc1ccc(-c2ccccc2-c2nnn[nH]2)cc1` [Candesartan, 1-((2'-(2H-tetrazol-5-yl)-[1,1'-biphenyl]-4-yl)methyl)-2-ethoxy-1H-benzo[d]imidazole-7-carboxylic acid]: the CNS status result was “Negative”. With `C[C@@H](CN1CC(=O)NC(=O)C1)N1CC(=O)NC(=O)C1` (racemic) [Dexrazoxane, rac-(R)-4,4'-(propane-1,2-diyl)bis(piperazine-2,6-dione)], the CNS status entry was “Negative”. Take `COC(=O)c1cnc2n1CCc1ccccc1C2=C1CCN(CCc2ccc(OCc3ccc4ccccc4n3)cc2)CC1` [Laniquidar, methyl 11-(1-(4-(quinolin-2-ylmethoxy)phenethyl)piperidin-4-ylidene)-6,11-dihydro-5H-benzo[d]imidazo[1,2-a]azepine-3-carboxylate]: the CNS status result is given as “Efflux transporter substrate”.

For the compound `COC(=O)C1=C(C)NC(C)=C(C(=O)OCCN(C)Cc2ccccc2)C1c1cccc([N+](=O)[O-])c1` (centres unmarked) [Nicardipine, 2-[Benzyl(methyl)amino]ethyl methyl 2,6-dimethyl-4-(3-nitrophenyl)-1,4-dihydro-3,5-pyridinedicarboxylate], the CNS status entry was “Efflux transporter substrate”. Take `CC#CCn1c(N2CCC[C@@H](N)C2)nc2c1c(=O)n(Cc1nc(C)c3ccccc3n1)c(=O)n2C` [Linagliptin, 8-(3-Amino-1-piperidinyl)-7-(2-butyn-1-yl)-3-methyl-1-[(4-methyl-2-quinazolinyl)methyl]-3,7-dihydro-1H-purine-2,6-dione]: the CNS status result was “Negative”. Turning to `C(=N\NC1=NCCN1)/c1c2ccccc2c(/C=N/NC2=NCCN2)c2ccccc12` [Bisantrene, N-[(E)-[10-[(E)-(4,5-dihydro-1H-imidazol-2-ylhydrazinylidene)methyl]anthracen-9-yl]methylideneamino]-4,5-dihydro-1H-imidazol-2-amine], the CNS status entry is “Efflux transporter substrate”. Regarding `CN/C(=N/CCSCc1nc[nH]c1C)NC#N` [Cimetidine, 1-Cyano-2-methyl-3-(2-{[(4-methyl-1H-imidazol5-yl)methyl]sulfanyl}ethyl)guanidine], the CNS status entry is “Efflux transporter substrate”. Regarding `CN(C)Cc1ccccc1Sc1ccc(C#N)cc1N` [DASB, 3-Amino-4-((2-((dimethylamino)methyl)phenyl)thio)benzonitrile], the CNS status entry is listed as “Positive”. Turning to `Cc1c(O)cccc1C(=O)N[C@@H](CSc1ccccc1)[C@H](O)CN1C[C@H]2CCCC[C@H]2C[C@H]1C(=O)NC(C)(C)C` [Nelfinavir, (3S,4aS,8aS)-2-[(2R,3R)-2-Hydroxy-3-[(3-hydroxy-2-methylbenzoyl)amino]-4-(phenylsulfanyl)butyl]-N-(2-methyl-2-propanyl)decahydro3-isoquinolinecarboxamide], the CNS status result is “Efflux transporter substrate”. As to `CN1[C@H]2CC[C@@H]1[C@@H](c1cc(-c3ccccc3)no1)[C@@H](c1ccc(Cl)cc1)C2` [beta-CPPIT, 5-((1R,2S,3S,5S)-3-(4-chlorophenyl)-8-methyl-8-azabicyclo[3.2.1]octan-2-yl)-3-phenylisoxazole], the CNS status entry is reported as “Positive”. As for `CCC(C)n1ncn(-c2ccc(N3CCN(c4ccc(OC[C@H]5CO[C@](Cn6cncn6)(c6ccc(Cl)cc6Cl)O5)cc4)CC3)cc2)c1=O` (stereo partly drawn) [Itraconazole, 2-sec-Butyl-4-{4-[4-(4-{[(2R,4S)-2-(2,4-dichlorophenyl)-2-(1H-1,2,4-triazol-1-ylmethyl)-1,3-dioxolan-4-yl]methoxy}phenyl)-1-piperazinyl]phenyl}-2,4-dihydro-3H-1,2,4-triazol-3-one], the CNS status entry is recorded as “Negative”.

In the case of `COc1ccccc1N1CCN(CCN(C(=O)C2CCCCC2)c2ccccn2)CC1` [WAY-100635, N-(2-(4-(2-methoxyphenyl)piperazin-1-yl)ethyl)-N-(pyridin-2-yl)], the CNS status result is given as “Positive”. For `CN(C(=O)C(c1ccccc1)c1ccccc1)[C@H](CN1CC[C@H](O)C1)c1ccccc1` [Asimadoline, N-{(1S)-2-[(3S)-3-Hydroxy-1-pyrrolidinyl]-1-phenylethyl}-Nmethyl-2,2-diphenylacetamide], the CNS status result was “Efflux transporter substrate”.

Consider `Fc1ncccc1OCC1C=CCN1` (centres unmarked) [Nifene, 3-((2,5-dihydro-1H-pyrrol-2-yl)methoxy)-2-fluoropyridine], for which the CNS status result is listed as “Positive”. With `N[C@@H](CC(=O)N1CCn2c(nnc2C(F)(F)F)C1)Cc1cc(F)c(F)cc1F` [Sitagliptin, (3R)-3-Amino-1-[3-(trifluoromethyl)-5,6-dihydro[1,2,4]triazolo[4,3-a]pyrazin-7(8H)-yl]-4-(2,4,5-trifluorophenyl)-1-butanone], the CNS status result is “Negative”.

For the compound `Cn1c2c(c3ccccc31)C[C@@]1(O)C3Cc4ccc(O)c5c4C1(CCN3CC1CC1)[C@H]2O5` (stereo partly drawn) [N-Methylnaltrinidole, (8aS,14bR)-7-(cyclopropylmethyl)-14-methyl-5,6,7,8,8a,9,14, 14b-octahydro-4,8-methanobenzofuro[2,3-a]pyrido [4,3-b]carbazole-1,8a-diol], the CNS status result is “Positive”. Take `CC[C@H]1OC(=O)[C@H](C)[C@@H](O[C@H]2C[C@@](C)(OC)[C@@H](O)[C@H](C)O2)[C@H](C)[C@@H](O[C@@H]2O[C@H](C)C[C@H](N(C)C)[C@H]2O)[C@](C)(O)C[C@@H](C)/C(=N\OCOCCOC)[C@H](C)[C@@H](O)[C@]1(C)O` [Roxithromycin]: the CNS status entry is listed as “Negative”. As for `CN1[C@H]2CC[C@@H]1[C@@H](C(=O)OCCF)[C@@H](c1ccc(I)cc1)C2` [2-FE-beta-CIT, (1R,2S,3S,5S)-2-fluoroethyl-3-(4-iodophenyl)-8-methyl-8-azabicyclo[3.2.1]octane-2-carboxylate], the CNS status result is “Positive”.

Regarding `CCC(C)N(C)C(=O)c1cc2ccccc2c(-c2ccccc2Cl)n1` (centres unmarked) [PK11195, N-(sec-butyl)-1-(2-chlorophenyl)-N-methylisoquinoline3-carboxamide], the CNS status result is “Positive”. `COC(=O)[C@H]1[C@@H](c2ccc(I)cc2)C[C@@H]2CC[C@H]1N2C` [beta-CIT, (1R,2S,3S,5S)-methyl-3-(4-iodophenyl)-8-methyl-8-azabicyclo [3.2.1]octane-2-carboxylate]: the CNS status entry was “Positive”.
